Data taken from US20220332699A1 (SAGE THERAPEUTICS, INC., priority 2019, published 2022).

What follows are compounds tested against CYP46A1 (Homo sapiens, UniProt Q9Y6A2) (assay: CYP46A1 Enzyme Assay 2 (testosterone substrate, HPLC-MS)). Settings: not given.
Type: biochemical
Description: Briefly, in a 384-well plate format, 10 μL per well of an enzyme-substrate mixture of CYP46A1 (5 μM final concentration) and Testosterone ([…] final concentration) were dispensed to wells containing test compound. For CYP46A1 titration, 5 μL per well of serially diluted CYP46A1 (concentrations including 10 μM, 5 μM, and 2.5 μM) and Testosterone (concentration of […]) were dispensed. For Testosterone titration, 5 μL per well of serially diluted Testosterone (concentrations including 10 μM, 5 μM, and 2.5 μM) and CYP46A1 (concentration of 5 μM) were dispensed. The plates were centrifuged at 1000 rpm for 30 seconds, and then sealed and incubated at 37° C. for 30 minutes. The plate was removed from the incubator, and then 10 μL per well of NADPH-generating system were dispensed to initiate the reaction. The plates were incubated at 37° C. for 15 minutes, added with 80 μL per well of 100% methanol consisting 1 ng/ml diclofenac as internal standard, and then transferred for HPLC-MS.

CYP46A1, sequence (Q9Y6A2 whole entry): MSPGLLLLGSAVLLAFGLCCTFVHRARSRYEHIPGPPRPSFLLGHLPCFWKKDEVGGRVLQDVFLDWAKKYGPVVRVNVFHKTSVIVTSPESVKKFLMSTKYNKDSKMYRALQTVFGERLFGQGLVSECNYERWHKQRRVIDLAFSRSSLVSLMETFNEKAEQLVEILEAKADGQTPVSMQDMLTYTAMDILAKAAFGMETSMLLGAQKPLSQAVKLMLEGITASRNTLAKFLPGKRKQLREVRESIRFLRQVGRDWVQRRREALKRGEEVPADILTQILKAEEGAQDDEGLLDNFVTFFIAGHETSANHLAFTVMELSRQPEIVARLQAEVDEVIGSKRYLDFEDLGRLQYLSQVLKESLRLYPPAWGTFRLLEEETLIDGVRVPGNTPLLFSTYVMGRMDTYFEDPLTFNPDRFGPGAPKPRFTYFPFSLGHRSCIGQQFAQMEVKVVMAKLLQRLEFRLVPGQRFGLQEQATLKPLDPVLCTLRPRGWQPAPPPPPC

Row | Structure (SMILES) | IC50
1 | N#CC1(c2ccccc2)CCN(C(=O)c2cccnc2-c2ccncn2)CC1 [Compound A256, 4-phenyl-1-(2-(pyrimidin-4-yl)nicotinoyl)piperidine-4-carbonitrile] | > 1000 nM

Same assay, conditions: read-out: IC50 (CYP46A1 inhibitory activity)

Row | Structure (SMILES) | IC50
2 | N#CC1(CCCCc2ccccc2)CCN(C(=O)c2cccnc2-c2ccncc2)CC1 [Compound A67, 1-([2,4′ bipyridine]-3-carbonyl)-4-(4-phenylbutyl)piperidine-4-carbonitrile] | < 100 nM
3 | N#CC1(Cc2ccc(F)cc2C2CC2)CCN(C(=O)c2cccnc2-c2ccncn2)CC1 [Compound A230, 4-(2-cyclopropyl-4-fluorobenzyl)-1-(2-(pyrimidin-4-yl)nicotinoyl)piperidine-4-carbonitrile] | < 100 nM
4 | N#CC1(Cc2ccc(C(F)(F)F)nc2)CCN(C(=O)c2cccnc2-c2ccncn2)CC1 [Compound A222, 1-(2-(pyrimidin-4-yl)nicotinoyl)-4-((6-(trifluoromethyl)pyridin-3-yl)methyl)piperidine-4-carbonitrile] | 100 to 1000 nM
5 | N#CC1(Cc2ccc(F)cc2)CCN(C(=O)c2c(F)cccc2-c2ccncn2)CC1 [Compound A221, 1-(2-fluoro-6-(pyrimidin-4-yl)benzoyl)-4-(4-fluorobenzyl)piperidine-4-carbonitrile] | < 100 nM
6 | Cc1ncc(CC2(C#N)CCN(C(=O)c3cccnc3-c3ccncn3)CC2)cn1 [Compound A203, 4-((2-methylpyrimidin-5-yl)methyl)-1-(2-(pyrimidin-4-yl)nicotinoyl)piperidine-4-carbonitrile] | > 1000 nM
7 | N#CC1(Cc2ccccc2F)CCN(C(=O)c2cccnc2-c2ccncc2)CC1 [Compound A12, 1-{[2,4′-bipyridine]-3-carbonyl}-4-[(2-fluorophenyl)methyl]piperidine-4-carbonitrile] | < 100 nM
8 | N#CC1(Cc2cc(C(F)(F)F)ccc2F)CCN(C(=O)c2cccnc2-c2ccncn2)CC1 [Compound A273, 4-(2-fluoro-5-(trifluoromethyl)benzyl)-1-(2-(pyrimidin-4-yl)nicotinoyl)piperidine-4-carbonitrile] | < 100 nM
9 | N#CC1(Cc2ccc(F)cc2)CCN(C(=O)c2cccnc2-c2cnco2)CC1 [Compound A56, 4-(4-fluorobenzyl)-1-(2-(oxazol-5-yl)nicotinoyl)piperidine-4-carbonitrile] | 100 to 1000 nM
10 | C[C@@H](c1ccc(F)cc1F)C1(C#N)CCN(C(=O)c2cccnc2-c2ccncn2)CC1 [Compound A242, (R)-4-(1-(2,4-difluorophenyl)ethyl)-1-(2-(pyrimidin-4-yl)nicotinoyl)piperidine-4-carbonitrile] | < 100 nM
11 | N#CC1(Cc2ccc(Cl)cc2F)CCN(C(=O)c2cccnc2-c2ccncc2)CC1 [Compound A11, 1-{[2,4′-bipyridine]-3-carbonyl}-4-[(4-chloro-2-fluorophenyl)methyl]piperidine-4-carbonitrile] | < 100 nM
12 | C[C@H](c1c(F)cccc1F)C1(C#N)CCN(C(=O)c2cccnc2-c2ccncc2)CC1 [Compound A245, (S)-1-([2,4′-bipyridine]-3-carbonyl)-4-(1-(2,6-difluorophenyl)ethyl)piperidine-4-carbonitrile] | < 100 nM
13 | CC(c1cc(F)cc(F)c1)C1(C#N)CCN(C(=O)c2cccnc2-c2ccncn2)CC1 (stereo in doubt) [Compound A257, (S)-4-(1-(3,5-difluorophenyl)ethyl)-1-(2-(pyrimidin-4-yl)nicotinoyl)piperidine-4-carbonitrile] | < 100 nM
14 | N#CC1(Cc2ccc(F)c(F)c2)CCN(C(=O)c2cccnc2-c2ccncc2)CC1 [Compound A69, 1-([2,4′-bipyridine]-3-carbonyl)-4-(3,4-difluorobenzyl)piperidine-4-carbonitrile] | < 100 nM
15 | C[C@H](c1ccc(F)cc1F)C1(C#N)CCN(C(=O)c2cccnc2-c2ccncc2)CC1 [Compound A237, (S)-1-([2,4′-bipyridine]-3-carbonyl)-4-(1-(2,4-difluorophenyl)ethyl)piperidine-4-carbonitrile] | < 100 nM
16 | N#CC1(Cc2ccc(F)cc2)CCN(C(=O)c2cccnc2-c2cccnc2)CC1 [Compound A18, 1-([2,3′-bipyridine]-3-carbonyl)-4-(4-fluorobenzyl)piperidine-4-carbonitrile] | > 1000 nM
17 | CC(c1ccc(C(F)(F)F)cc1)C1(C#N)CCN(C(=O)c2cccnc2-c2ccncc2)CC1 (stereo in doubt) [Compound A269, (S)-1-([2,4′-bipyridine]-3-carbonyl)-4-(1-(4-(trifluoromethyl)phenyl)ethyl)piperidine-4-carbonitrile] | < 100 nM
18 | N#CC1(Cc2ccc(Cl)cc2Br)CCN(C(=O)c2cccnc2-c2ccncn2)CC1 [Compound A232, 4-(2-bromo-4-chlorobenzyl)-1-(2-(pyrimidin-4-yl)nicotinoyl)piperidine-4-carbonitrile] | < 100 nM
19 | C[C@H](c1ccc(C(F)(F)F)cc1)C1(C#N)CCN(C(=O)c2cccnc2-c2ccncn2)CC1 [Compound A251, (R)-1-(2-(pyrimidin-4-yl)nicotinoyl)-4-(1-(4-(trifluoromethyl)phenyl)ethyl)piperidine-4-carbonitrile] | < 100 nM

Row | Structure (SMILES) | IC50
20 | Cc1ccc(CC2(C#N)CCN(C(=O)c3cccnc3-c3ccncn3)CC2)cc1 [Compound A35, 4-(4-methylbenzyl)-1-(2-(pyrimidin-4-yl)nicotinoyl)piperidine-4-carbonitrile] | < 100 nM
21 | N#CC1(Cc2c(F)cc(F)cc2F)CCN(C(=O)c2cccnc2-c2ccncc2)CC1 [Compound A272, 1-([2,4′-bipyridine]-3-carbonyl)-4-(2,4,6-trifluorobenzyl)piperidine-4-carbonitrile] | < 100 nM
22 | N#CC1(Cc2ccc(Cl)cc2)CCN(C(=O)c2cccnc2-c2ccncn2)CC1 [Compound A37, 4-(4-chlorobenzyl)-1-(2-(pyrimidin-4-yl)nicotinoyl)piperidine-4-carbonitrile] | < 100 nM
23 | N#CC1(Cc2cc(F)cc(F)c2)CCN(C(=O)c2cccnc2-c2ccncn2)CC1 [Compound A213, 4-(3,5-difluorobenzyl)-1-(2-(pyrimidin-4-yl)nicotinoyl)piperidine-4-carbonitrile] | < 100 nM
24 | Cc1ccc(C(=O)N2CCC(C#N)(Cc3ccc(F)cc3)CC2)c(-c2ccncn2)n1 [Compound A249, 4-(4-fluorobenzyl)-1-(6-methyl-2-(pyrimidin-4-yl)nicotinoyl)piperidine-4-carbonitrile] | > 1000 nM
25 | N#C[C@]1(Cc2ccc(F)cc2)CCN(C(=O)c2cccnc2-c2ccncn2)C1 [Compound A235, (R)-3-(4-fluorobenzyl)-1-(2-(pyrimidin-4-yl)nicotinoyl)pyrrolidine-3-carbonitrile] | > 1000 nM
26 | C[C@H]1CN(C(=O)c2cccnc2-c2ccncn2)CC[C@]1(C#N)Cc1ccc(F)cc1 [Compound A248, (3R,4R)-4-(4-fluorobenzyl)-3-methyl-1-(2-(pyrimidin-4-yl)nicotinoyl)piperidine-4-carbonitrile] | < 100 nM
27 | N#CC1(Cc2cccc(C(F)(F)F)c2F)CCN(C(=O)c2cccnc2-c2ccncc2)CC1 [Compound A266, 1-([2,4′-bipyridine]-3-carbonyl)-4-(2-fluoro-3-(trifluoromethyl)benzyl)piperidine-4-carbonitrile] | < 100 nM
28 | CC(c1cc(F)cc(F)c1)C1(C#N)CCN(C(=O)c2cccnc2-c2ccncc2)CC1 (stereo in doubt) [Compound A259, (S)-1-([2,4′-bipyridine]-3-carbonyl)-4-(1-(3,5-difluorophenyl)ethyl)piperidine-4-carbonitrile] | < 100 nM
29 | N#CC1(Cc2c(F)cccc2F)CCN(C(=O)c2cccnc2-c2ccncc2)CC1 [Compound A274, 1-([2,4′-bipyridine]-3-carbonyl)-4-(2,6-difluorobenzyl)piperidine-4-carbonitrile] | < 100 nM
30 | N#CC1(Cc2ccc(C3CC3)cc2)CCN(C(=O)c2cccnc2-c2ccncn2)CC1 [Compound A212, 4-(4-cyclopropylbenzyl)-1-(2-(pyrimidin-4-yl)nicotinoyl)piperidine-4-carbonitrile] | < 100 nM
31 | N#CC1(Cc2ccc(-c3ccccc3)cc2)CCN(C(=O)c2cccnc2-c2ccncc2)CC1 [Compound A19, 4-([1,1′-biphenyl]-4-ylmethyl)-1-([2,4′-bipyridine]-3-carbonyl)piperidine-4-carbonitrile] | < 100 nM
32 | N#CC1(Cc2c(F)cc(C(F)(F)F)cc2F)CCN(C(=O)c2cccnc2-c2ccncc2)CC1 [Compound A280, 1-([2,4′-bipyridine]-3-carbonyl)-4-(2,6-difluoro-4-(trifluoromethyl)benzyl)piperidine-4-carbonitrile] | < 100 nM
33 | Cc1ccc(CC2(C#N)CCN(C(=O)c3cccnc3-c3ccncn3)CC2)cn1 [Compound A201, 4-((6-methylpyridin-3-yl)methyl)-1-(2-(pyrimidin-4-yl)nicotinoyl)piperidine-4-carbonitrile] | < 100 nM
34 | CC[C@@H](c1ccc(F)cc1)C1(C#N)CCN(C(=O)c2cccnc2-c2ccncn2)CC1 [Compound A216, (S)-4-(1-(4-fluorophenyl)propyl)-1-(2-(pyrimidin-4-yl)nicotinoyl)piperidine-4-carbonitrile] | < 100 nM
35 | N#CC1(Cc2ccccc2C(F)(F)F)CCN(C(=O)c2cccnc2-c2ccncn2)CC1 [Compound A262, 1-(2-(pyrimidin-4-yl)nicotinoyl)-4-(2-(trifluoromethyl)benzyl)piperidine-4-carbonitrile] | < 100 nM
36 | N#CC1(Cc2ccccc2C2CC2)CCN(C(=O)c2cccnc2-c2ccncn2)CC1 [Compound A214, 4-(2-cyclopropylbenzyl)-1-(2-(pyrimidin-4-yl)nicotinoyl)piperidine-4-carbonitrile] | < 100 nM
